Measured values published in patent US20040024024A1, “Aromatic sulfone hydroxamates and their use as protease inhibitors” (priority 2001, published 2004).

Experiments:
Assay in all cases: In vitro MMP inhibition, IC50 determination (fluorogenic substrate I)
Assay type in all cases: biochemical
Human recombinant MMP-1 = molecular target: T1, Human recombinant MMP-1 (Homo sapiens, UniProt P03956)
T1 construct: made in house; host or cells: MMP-1-transfected HT-1080 cells (spent media)
T1 sequence (P03956 100-469): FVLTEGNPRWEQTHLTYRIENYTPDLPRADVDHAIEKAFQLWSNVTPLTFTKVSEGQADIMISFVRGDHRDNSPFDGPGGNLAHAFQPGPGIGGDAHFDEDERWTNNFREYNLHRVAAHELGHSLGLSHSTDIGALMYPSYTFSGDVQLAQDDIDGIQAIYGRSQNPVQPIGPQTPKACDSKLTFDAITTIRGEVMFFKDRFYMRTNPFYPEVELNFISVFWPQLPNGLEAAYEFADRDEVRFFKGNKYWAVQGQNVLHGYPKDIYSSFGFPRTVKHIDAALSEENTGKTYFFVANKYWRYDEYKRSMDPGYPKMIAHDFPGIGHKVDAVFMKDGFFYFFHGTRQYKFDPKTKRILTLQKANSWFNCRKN
Outline: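 Inhibitor dilutions were made in 100 mM Tris-HCl/100 mM NaCl/10 mM CaCl2 buffer, pH 7.5, and incubated at room temperature with activated proenzyme (from transfected HT-1080 media; APMA or trypsin) and 4 μM quenched methoxycoumarin peptide substrate. Loss of 415 nm fluorescence (328 nm excitation) against concentration gave IC50.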

Human recombinant MMP-13 = molecular target: T2, Human recombinant MMP-13 (Homo sapiens, UniProt P45452)
T2 construct: made in house; host or cells: baculovirus / insect cells
Outline: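 Fluorescence at 415 nm (excitation 328 nm) reports Gly-Leu cleavage of 4 μM quenched methoxycoumarin peptide substrate I. Human recombinant MMP-13, activated by trypsin or APMA, was incubated at room temperature with varied inhibitor concentrations in pH 7.5 Tris/NaCl/CaCl2 buffer; IC50 derived from reduced fluorescence.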

Human recombinant MMP-2 = molecular target: T3, Human recombinant MMP-2 (Homo sapiens, UniProt P08253)
T3 construct: made in house; host or cells: MMP-2-transfected p2AHT2 cells
T3 sequence (P08253 110-660): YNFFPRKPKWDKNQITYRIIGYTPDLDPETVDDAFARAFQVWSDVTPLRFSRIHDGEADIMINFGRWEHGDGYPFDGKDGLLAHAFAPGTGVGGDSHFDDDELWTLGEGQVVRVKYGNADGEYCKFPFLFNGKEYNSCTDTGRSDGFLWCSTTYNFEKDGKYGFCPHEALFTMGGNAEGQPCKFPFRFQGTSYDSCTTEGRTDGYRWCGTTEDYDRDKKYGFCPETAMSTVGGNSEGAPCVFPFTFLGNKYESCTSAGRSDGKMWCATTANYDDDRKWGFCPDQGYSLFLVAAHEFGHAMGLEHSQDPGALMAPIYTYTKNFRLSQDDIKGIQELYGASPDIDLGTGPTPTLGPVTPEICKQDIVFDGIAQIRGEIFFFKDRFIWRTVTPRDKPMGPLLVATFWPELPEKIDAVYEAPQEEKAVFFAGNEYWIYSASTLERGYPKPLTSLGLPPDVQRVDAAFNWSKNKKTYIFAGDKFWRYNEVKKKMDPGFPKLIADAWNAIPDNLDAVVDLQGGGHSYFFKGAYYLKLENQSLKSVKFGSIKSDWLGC
Outline: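 IC50 was derived from the concentration-dependent fall in fluorescence (ex 328, em 415 nm) on Gly-Leu cleavage of 4 μM MCA/Dpa-quenched substrate I. Assays ran at room temperature in pH 7.5 Tris/NaCl/CaCl2/Brij buffer with MMP-2 activated by trypsin or APMA; inhibitors were diluted from 1% DMSO stocks.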

Human recombinant MMP-14 = molecular target: T4, Human recombinant MMP-14 (Homo sapiens, UniProt P50281)
T4 construct: The catalytic domain enzyme was expressed in E. coli inclusion bodies, solubilized in urea; made in house
Outline: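 IC50 came from reduced fluorescence (ex 328 nm, em 415 nm) as inhibitor concentration rose, with 4 μM substrate I cleaved at Gly-Leu. Room-temperature incubation in pH 7.5 Tris buffer with 10 mM CaCl2; the E. coli-expressed, refolded MMP-14 catalytic domain was activated with trypsin or APMA.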

Human recombinant MMP-9 = molecular target: T5, Human recombinant MMP-9 (Homo sapiens, UniProt P14780)
T5 construct: made in house; host or cells: MMP-9-transfected HT1080 cells (spent media)
T5 sequence (P14780 107-707 limits assumed): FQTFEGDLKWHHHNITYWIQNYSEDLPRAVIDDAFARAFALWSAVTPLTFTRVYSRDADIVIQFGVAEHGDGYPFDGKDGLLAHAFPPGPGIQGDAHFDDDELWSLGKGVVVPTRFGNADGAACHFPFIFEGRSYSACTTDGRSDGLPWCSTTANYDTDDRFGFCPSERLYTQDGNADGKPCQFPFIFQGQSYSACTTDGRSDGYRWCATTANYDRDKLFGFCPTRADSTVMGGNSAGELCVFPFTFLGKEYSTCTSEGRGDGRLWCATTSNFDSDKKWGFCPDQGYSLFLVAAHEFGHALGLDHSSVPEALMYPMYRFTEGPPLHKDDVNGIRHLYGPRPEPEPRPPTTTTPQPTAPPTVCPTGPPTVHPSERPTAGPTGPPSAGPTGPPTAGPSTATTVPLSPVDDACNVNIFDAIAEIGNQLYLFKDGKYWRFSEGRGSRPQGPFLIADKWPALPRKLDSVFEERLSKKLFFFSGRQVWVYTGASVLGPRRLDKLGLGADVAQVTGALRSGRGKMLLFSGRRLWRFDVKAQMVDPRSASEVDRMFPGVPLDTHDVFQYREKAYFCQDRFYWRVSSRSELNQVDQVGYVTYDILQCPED
Outline: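 Reduction in fluorescence (328 nm excitation, 415 nm emission) from cleavage of 4 μM quenched peptide substrate I, measured at room temperature against inhibitor concentration, gave IC50. Enzyme: trypsin- or APMA-activated MMP-9 purified from transfected HT1080 medium; buffer 100 mM Tris, 100 mM NaCl, 10 mM CaCl2, pH 7.5.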

[1] = value outside parentheses (Ki in parenthesis)

Structure (SMILES)	IC50 (Human recombinant MMP-1; [1])	IC50 (Human recombinant MMP-13; [1])	IC50 (Human recombinant MMP-2; [1])	IC50 (Human recombinant MMP-14; [1])	IC50 (Human recombinant MMP-9; [1])	IC50 (Human recombinant MMP-1; value outside parentheses)	IC50 (Human recombinant MMP-13; value outside parentheses)	IC50 (Human recombinant MMP-2; value outside parentheses)	IC50 (Human recombinant MMP-14; value outside parentheses)	IC50 (Human recombinant MMP-9; value outside parentheses)
COc1ccc(OCCCOc2ccc(S(=O)(=O)C3(C(=O)NO)CCOCC3)cc2)cc1 [Example 447]	> 10000 nM	2 nM	8.9 nM	1360 nM	12.2 nM					
O=C(NO)C1(S(=O)(=O)c2ccc(OCCCOc3ccc4ccccc4c3)cc2)CCOCC1 [Example 448]	3080 nM	2.7 nM	9 nM	832 nM	116 nM					
O=C(NO)C1(S(=O)(=O)c2ccc(OCCCO)cc2)CCOCC1 [Example 449]	1930 nM	7 nM	3.7 nM	58 nM	41 nM					
COc1ccc(OCCCCOc2ccc(S(=O)(=O)C3(C(=O)NO)CCOCC3)cc2)cc1 [Example 450]	> 10000 nM	0.9 nM	6.6 nM	4940 nM	44 nM					
COc1cc(COCCCOc2ccc(S(=O)(=O)C3(C(=O)NO)CCOCC3)cc2)cc(OC)c1 [Example 453]	> 10000 nM	3 nM	13 nM	5000 nM	800 nM					
CCCCOCCCNc1ccc(S(=O)(=O)C2(C(=O)NO)CCOCC2)cc1 [Example 460]	> 10000 nM	25 nM	145 nM	> 10000 nM	700 nM					
O=C(NO)C1(S(=O)(=O)c2ccc(NCCCCc3ccccc3)cc2)CCOCC1 [Example 462]	> 10000 nM	7 nM	11 nM	6500 nM	18 nM					
COc1ccc(CCCOc2ccc(S(=O)(=O)C3(C(=O)NO)CCOCC3)cc2)cc1 [Example 465]	> 10000 nM	0.3 nM	4 nM	1800 nM	180 nM					
COc1ccc(CCCOc2ccc(S(=O)(=O)C3(C(=O)NO)CCOCC3)cc2)cc1OC [Example 466]	> 10000 nM	15 nM	110 nM	> 10000 nM	45 nM					
CC(CCc1ccccc1)Oc1ccc(S(=O)(=O)C2(C(=O)NO)CCOCC2)cc1 (stereo not drawn) [Example 467]	> 10000 nM	120 nM	940 nM	> 10000 nM	450 nM					
COC(C)CCOc1ccc(S(=O)(=O)C2(C(=O)NO)CCOCC2)cc1 (stereo not drawn) [Example 472]	> 10000 nM	6 nM	3 nM	400 nM	40 nM					
COC(C)(C)CCOc1ccc(S(=O)(=O)C2(C(=O)NO)CCOCC2)cc1 [Example 473]	> 10000 nM	5 nM	5 nM	600 nM	45 nM					
CCCC(CCOc1ccc(S(=O)(=O)C2(C(=O)NO)CCOCC2)cc1)SC (stereo not drawn) [Example 475]	> 10000 nM	2 nM	30 nM	3600 nM	120 nM					
CCCC(CCOc1ccc(S(=O)(=O)C2(C(=O)NO)CCOCC2)cc1)S(C)(=O)=O (stereo not drawn) [Example 476]	> 10000 nM	230 nM	2500 nM	> 10000 nM	> 10000 nM					
O=C(NO)C1(S(=O)(=O)c2ccc(OCCC3CCCCC3)cc2)CCOCC1 [Example 478]	> 10000 nM	5 nM	1 nM	1450 nM	34 nM					
C/C(=C\c1ccccc1)COc1ccc(S(=O)(=O)C2(C(=O)NO)CCOCC2)cc1 [Example 479]	2700 nM	3 nM	4 nM	2000 nM	14 nM					
O=C(NO)C1(S(=O)(=O)c2ccc(OC3CCOCC3)cc2)CCOCC1 [Example 480]	4200 nM	11 nM	18 nM	1400 nM	60 nM					
CN(C)c1ccc(/C=C/CCCOc2ccc(S(=O)(=O)C3(C(=O)NO)CCOCC3)cc2)cc1 [Example 486]	> 10000 nM	4.6 nM	106 nM	> 10000 nM	255 nM					
COc1ccc(C(O)CCCCOc2ccc(S(=O)(=O)C3(C(=O)NO)CCOCC3)cc2)cc1 (stereo not drawn) [Example 487]	> 10000 nM	0.5 nM	3.1 nM	1570 nM	169 nM					
O=C(CCCCOc1ccc(S(=O)(=O)C2(C(=O)NO)CCOCC2)cc1)c1ccc2ccccc2c1 [Example 489]	> 10000 nM	0.4 nM	58.2 nM	> 10000 nM	> 10000 nM					
CN(C)c1ccc(C(=O)CCCOc2ccc(S(=O)(=O)C3(C(=O)NO)CCOCC3)cc2)cc1 [Example 490]	> 10000 nM	0.2 nM	18.2 nM	5630 nM	928 nM					
COc1ccc(C(=O)CCCOc2ccc(S(=O)(=O)C3(C(=O)NO)CCOCC3)cc2)cc1 [Example 491]						7310 nM	0.8 nM	6.8 nM	981 nM	94.2 nM
O=C(CCCOc1ccc(S(=O)(=O)C2(C(=O)NO)CCOCC2)cc1)c1ccccc1 [Example 492]						3550 nM	0.7 nM	3.5 nM	574 nM	67.3 nM
COc1ccc(C(=O)CCOc2ccc(S(=O)(=O)C3(C(=O)NO)CCOCC3)cc2)cc1 [Example 494]						1520 nM	< 0.1 nM	< 0.1 nM	197 nM	13.6 nM
